Source: US8586611B2 (priority 2005, dated 2013)

How the values were obtained:
Format in all cases: in vivo
[1] = test system: Pseudoperonospora cubensis; assay: Test A: cucumber downy mildew, spray the day before inoculation (disease rating, 100 = 100% disease control)
In short: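 Cucumber seedlings were sprayed to run-off with compound suspended in acetone/water containing 250 ppm Trem 014 (200 ppm equated to 500 g/ha), then inoculated with P. cubensis spores the next day. Plants were kept 24 h at 20 °C in saturated humidity, then 6 days at 20 °C, before disease rating relative to controls.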

[2] = test system: Plasmopara viticola; assay: Test B: grape downy mildew, spray 24 h after inoculation (disease rating, 100 = 100% disease control)
In short: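 Grape seedlings were inoculated with Plasmopara viticola and held 24 h saturated at 20 °C, then sprayed to run-off with compound suspension (acetone/water with 250 ppm Trem 014; 200 ppm ≈ 500 g/ha). After 5 days at 20 °C and 24 h saturation, disease was rated from 0 to 100% control versus untreated.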

[3] = test system: Phytophthora infestans; assay: whole plant or invertebrate; details: tomato late blight
[4] = test system: Pseudoperonospora cubensis; assay: Test F: cucumber downy mildew, DMSO/acetone/water test suspension, spray the day before inoculation (disease rating, 100 = 100% disease control)
In short: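 Compounds in DMSO (4% of final volume) suspended in 30/70 acetone/water and sprayed on cucumber seedlings; 250 ppm corresponds to 250 g/ha. Spore inoculation the next day, 24 h saturated humidity at 20° C., then 6 days at 20° C. Rating 0–100 is disease control relative to controls.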

[5] = test system: Erysiphe graminis f. sp. tritici; assay: Test E: wheat powdery mildew, spray the day before inoculation (disease rating, 100 = 100% disease control)
In short: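 Wheat seedlings sprayed to run-off with compound suspended in acetone/water 50/50 with 250 ppm Trem 014 (200 ppm equivalent to 500 g/ha); inoculated next day with Erysiphe graminis f. sp. tritici spore dust. Kept 7 days at 20° C, then rated 0–100% disease control versus controls.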

[6] = spray the day before inoculation, compounds without asterisk (not 40 or 10 ppm)
[7] = spray 24 h after inoculation, compounds without asterisk (not 40 or 10 ppm)
[8] = DMSO/acetone/water suspension, spray the day before inoculation, compounds without asterisk
[9] = sprayed the day before inoculation, unmarked compounds (no asterisk, not 40 or 10 ppm)
[10] = sprayed 24 h after inoculation, unmarked compounds (no asterisk, not 40 or 10 ppm)
[11] = DMSO/acetone/water test suspension, sprayed the day before inoculation, unmarked compounds (no asterisk)
[12] = sprayed the day before inoculation, 7 days at 20° C., unmarked compounds (no asterisk, not 40 or 10 ppm)

| Compound | Test A disease rating (100 = 100% disease control, 0 = no disease control) [1, 6] [%] | Test B disease rating (100 = 100% disease control, 0 = no disease control) [2, 7] [%] | Test C disease rating (100 = 100% disease control, 0 = no disease control) [3, 6] [%] | Test F disease rating (100 = 100% disease control, 0 = no disease control) [4, 8] [%] | Test E disease rating (100 = 100% disease control, 0 = no disease control) [5, 6] [%] | Test A disease rating (100 = 100% disease control, 0 = no disease control) [1, 9] | Test B disease rating (100 = 100% disease control, 0 = no disease control) [2, 10] | Test C disease rating (100 = 100% disease control, 0 = no disease control) [3, 9] | Test F disease rating (100 = 100% disease control, 0 = no disease control) [4, 11] | Test E disease rating (100 = 100% disease control, 0 = no disease control) [5, 12] |
| --- | --- | --- | --- | --- | --- | --- | --- | --- | --- | --- |
| COc1ccccc1CC(=O)N1CCC(c2nc(C(=O)N(C)[C@H](C)c3ccccc3)cs2)CC1 [compound 41] | 100 | 94 | 100 | 82 | 0 |  |  |  |  |  |
| O=C(NCCc1ccccc1)c1csc(C2CCN(C(=O)Cc3ccccc3Cl)CC2)n1 [compound 264] |  |  |  |  |  | 96 | 20 | 0 | 93 | 68 |
| N-methyl-2-[1-[[5-methyl-3-(trifluoromethyl)-1H-pyrazol-1-yl]acetyl]-4-piperidinyl]-N-(1,2,3,4-tetrahydro-4-oxo-1-naphthalenyl)-4-thiazolecarboxamide [Compound 211] | 100 | 8 | 99 | 92 | 0 |  |  |  |  |  |
| C[C@H](c1ccccc1)N(C)C(=O)c1csc(C2CCN(C(=O)Cc3ccc(F)c(Cl)c3)CC2)n1 [compound 35] | 88 | 66 | 93 | 97 | 0 |  |  |  |  |  |
| CN(CCc1ccccc1)C(=O)c1csc(C2CCN(C(=O)Cc3ccccc3Cl)CC2)n1 [compound 162] | 0 | 14 | 15 | 43 | 42 |  |  |  |  |  |
| N-methyl-2-[1-[[5-methyl-3-(trifluoromethyl)-1H-pyrazol-1-yl]acetyl]-4-piperidinyl]-N-[(1R)-1,2,3,4-tetrahydro-1-naphthalenyl]-4-oxazolecarboxamide [Compound 151] | 99 | 31 | 29 | 93 | 0 |  |  |  |  |  |
| N#CC(NC(=O)c1csc(C2CCN(C(=O)Cc3cccc(Br)c3)CC2)n1)c1ccccc1 (centres unmarked) [compound 282] |  |  |  |  |  | 55 | 8 | 0 | 39 | 0 |
